Assay results taken from US8815882B2, “Pyrazole aminopyrimidine derivatives as LRRK2 modulators” (Genentech, Inc., priority 2010, dated 2014).
Like-named read-outs stand apart in the source and are kept apart here.

Biological target: T1, LRRK2 (Homo sapiens, UniProt Q5S007, G2019S)
T1 construct: purchased Invitrogen PV4882 (lot 567054A)
Test: In Vitro LRRK2 Assay (LabChip 3000, fluorescently-labeled peptide substrate, ATP)
Format: biochemical
In short: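 LRRK2, fluorescent peptide substrate (diluted to 4 μM before mixing), ATP and compound were incubated 2 h in the dark, then stopped. Phosphorylated and unphosphorylated peptide were separated by capillary electrophoresis and quantified by fluorescence. Ki was fitted with a tight-binding equation including enzyme concentration, S and Km; IC50 or percent inhibition were also reported.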

[1] = read-out: LRRK2 Ki (KI), Table 8
[2] = Table 9, LRRK2 Ki (micromolar), read-out: LRRK2 Ki (KI)

T1 sequence (Q5S007 whole entry G2019S): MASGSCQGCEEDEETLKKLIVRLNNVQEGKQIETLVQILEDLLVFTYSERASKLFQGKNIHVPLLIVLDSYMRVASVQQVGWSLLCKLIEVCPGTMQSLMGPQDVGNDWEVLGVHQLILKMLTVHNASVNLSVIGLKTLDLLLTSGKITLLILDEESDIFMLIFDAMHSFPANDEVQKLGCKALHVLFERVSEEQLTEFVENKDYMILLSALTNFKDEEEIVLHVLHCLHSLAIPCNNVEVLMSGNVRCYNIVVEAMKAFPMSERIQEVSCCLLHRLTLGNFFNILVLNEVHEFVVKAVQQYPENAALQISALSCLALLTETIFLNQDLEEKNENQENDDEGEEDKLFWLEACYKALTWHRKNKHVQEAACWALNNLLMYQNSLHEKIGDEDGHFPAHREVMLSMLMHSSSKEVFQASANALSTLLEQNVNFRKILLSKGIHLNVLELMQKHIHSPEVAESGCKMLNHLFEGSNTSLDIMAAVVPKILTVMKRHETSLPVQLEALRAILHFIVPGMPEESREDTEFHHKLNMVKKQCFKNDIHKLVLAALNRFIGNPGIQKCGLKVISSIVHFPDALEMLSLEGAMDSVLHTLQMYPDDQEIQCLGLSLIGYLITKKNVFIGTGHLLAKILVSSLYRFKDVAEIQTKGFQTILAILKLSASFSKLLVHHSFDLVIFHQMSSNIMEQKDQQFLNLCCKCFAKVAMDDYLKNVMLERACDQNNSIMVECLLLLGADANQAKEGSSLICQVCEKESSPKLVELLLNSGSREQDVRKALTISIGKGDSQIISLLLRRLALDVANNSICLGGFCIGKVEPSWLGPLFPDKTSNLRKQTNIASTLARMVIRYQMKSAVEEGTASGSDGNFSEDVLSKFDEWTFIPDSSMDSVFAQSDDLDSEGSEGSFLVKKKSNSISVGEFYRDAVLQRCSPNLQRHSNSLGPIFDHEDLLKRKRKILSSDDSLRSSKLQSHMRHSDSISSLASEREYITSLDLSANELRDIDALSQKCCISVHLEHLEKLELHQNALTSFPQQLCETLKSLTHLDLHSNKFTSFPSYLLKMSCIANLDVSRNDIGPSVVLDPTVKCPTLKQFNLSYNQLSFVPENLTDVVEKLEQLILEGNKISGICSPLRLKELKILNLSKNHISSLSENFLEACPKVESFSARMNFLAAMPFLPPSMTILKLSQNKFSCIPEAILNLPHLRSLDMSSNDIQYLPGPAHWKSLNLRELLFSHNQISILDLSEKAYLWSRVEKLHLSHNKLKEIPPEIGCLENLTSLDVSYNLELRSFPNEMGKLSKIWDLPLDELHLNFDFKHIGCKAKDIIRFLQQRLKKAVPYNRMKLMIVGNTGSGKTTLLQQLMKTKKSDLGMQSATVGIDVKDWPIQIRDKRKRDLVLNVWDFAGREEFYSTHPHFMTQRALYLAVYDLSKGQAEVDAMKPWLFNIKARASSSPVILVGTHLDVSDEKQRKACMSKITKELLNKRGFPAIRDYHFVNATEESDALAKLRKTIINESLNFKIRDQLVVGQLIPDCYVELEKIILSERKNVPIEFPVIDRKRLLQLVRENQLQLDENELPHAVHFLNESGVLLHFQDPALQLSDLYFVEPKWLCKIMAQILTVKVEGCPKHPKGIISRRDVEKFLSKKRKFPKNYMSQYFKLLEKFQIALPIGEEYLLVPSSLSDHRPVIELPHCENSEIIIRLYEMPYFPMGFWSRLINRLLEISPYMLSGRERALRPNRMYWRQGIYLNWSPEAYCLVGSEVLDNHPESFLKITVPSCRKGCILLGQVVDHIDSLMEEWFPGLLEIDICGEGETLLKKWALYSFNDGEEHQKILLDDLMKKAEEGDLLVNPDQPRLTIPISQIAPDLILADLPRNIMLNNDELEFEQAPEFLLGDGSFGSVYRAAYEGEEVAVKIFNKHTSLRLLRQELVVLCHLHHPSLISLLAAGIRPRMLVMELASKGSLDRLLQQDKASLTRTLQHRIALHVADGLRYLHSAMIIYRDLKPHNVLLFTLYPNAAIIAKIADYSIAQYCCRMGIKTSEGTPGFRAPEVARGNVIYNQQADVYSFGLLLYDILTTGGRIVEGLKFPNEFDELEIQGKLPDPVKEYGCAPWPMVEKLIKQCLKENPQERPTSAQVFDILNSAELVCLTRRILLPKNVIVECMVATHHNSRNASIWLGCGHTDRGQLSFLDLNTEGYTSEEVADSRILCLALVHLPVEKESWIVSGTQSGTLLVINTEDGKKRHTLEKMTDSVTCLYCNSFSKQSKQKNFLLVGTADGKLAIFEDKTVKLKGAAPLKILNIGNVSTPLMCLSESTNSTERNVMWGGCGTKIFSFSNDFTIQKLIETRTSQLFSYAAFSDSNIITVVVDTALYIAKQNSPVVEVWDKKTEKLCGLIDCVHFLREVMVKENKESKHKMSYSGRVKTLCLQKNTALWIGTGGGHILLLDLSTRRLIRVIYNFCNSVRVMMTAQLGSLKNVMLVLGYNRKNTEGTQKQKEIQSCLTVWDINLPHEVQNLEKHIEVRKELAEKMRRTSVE

| Compound | Ki [1] [nM] | Ki [2] [nM] | other results |
| --- | --- | --- | --- |
| CCNc1nc(Nc2cn(C(C)(C)c3nnc(C)[nH]3)nc2C)ncc1C(F)(F)F [Example 331, N4-Ethyl-N2-{3-methyl-1-[1-methyl-1-(5-methyl-4H-[1,2,4]triazol-3-yl)-ethyl]-1H-pyrazol-4-yl}-5-trifluoromethyl-pyrimidine-2,4-diamine] | 0.8 | – | – |
| CNc1nc(Nc2cn(C(C)(C)c3nnc[nH]3)nc2C)ncc1C(F)(F)F [Example 332, N4-Methyl-N2-{3-methyl-1-[1-methyl-1-(4H-[1,2,4]triazol-3-yl)-ethyl]-1H-pyrazol-4-yl}-5-trifluoromethyl-pyrimidine-2,4-diamine] | 2.3 | – | – |
| CCNc1nc(Nc2cn(C3CCNCC3F)nc2C)ncc1C(F)(F)F (stereo not drawn) [Example 333, N4-Ethyl-N2-[1-(3-fluoro-piperidin-4-yl)-3-methyl-1H-pyrazol-4-yl]-5-trifluoromethyl-pyrimidine-2,4-diamine] | 0.7 | – | – |
| CNc1nc(Nc2cnn(C3CCCC3O)c2C)ncc1C(F)(F)F (stereo not drawn) [Example 334, 2-[5-Methyl-4-(4-methylamino-5-trifluoromethyl-pyrimidin-2-ylamino)-pyrazol-1-yl]-cyclopentanol] | 6.3 | – | – |
| CNc1nc(Nc2cn(C3CCCC3O)nc2C)ncc1C(F)(F)F (stereo not drawn) [Example 335, 2-[3-Methyl-4-(4-methylamino-5-trifluoromethyl-pyrimidin-2-ylamino)-pyrazol-1-yl]-cyclopentanol] | 3.3 | – | – |
| CCNc1nc(Nc2cn(C(C)(C)c3nnc(C)o3)nc2C)ncc1C(F)(F)F [Example 336, N4-ethyl-N2-(3-methyl-1-(2-(5-methyl-1,3,4-oxadiazol-2-yl)propan-2-yl)-1H-pyrazol-4-yl)-5-(trifluorometliyl) pyrimidine-2,4-diamine] | 1.2 | – | – |
| CCNc1nc(Nc2cn(C(C)(C)c3nncn3C)nc2C)ncc1C(F)(F)F [Example 337, N4-ethyl-N2-(3-methyl-1-(2-(4-methyl-4H-1,2,4-triazol-3-yl)propan-2-yl)-1H-pyrazol-4-yl)-5-(trifluoromethyl) pyrimidine-2,4-diamine] | 7.6 | – | – |
| CCNc1nc(Nc2cn(C(C)(C)c3ncn(C)n3)nc2C)ncc1C(F)(F)F [Example 338, N4-ethyl-N2-(3-methyl-1-(2-(1-methyl-1H-1,2,4-triazol-3-yl)propan-2-yl)-1H-pyrazol-4-yl)-5-(trifluoromethyl) pyrimidine-2,4-diamine] | 0.3 | – | – |
| CNc1nc(Nc2cn(C(C)(C)c3nnc(C)o3)nc2C)ncc1C(F)(F)F [Example 339, N4-methyl-N2-(3-methyl-1-(2-(5-methyl-1,3,4-oxadiazol-2-yl)propan-2-yl)-1H-pyrazol-4-yl)-5-(trifluoromethyl) pyrimidine-2,4-diamine] | 11.7 | – | – |
| CNc1nc(Nc2cn(C(C)(C)c3cnn(C)c3)nc2C)ncc1C(F)(F)F [Example 340, N4-methyl-N2-(3-methyl-1-(2-(1-methyl-1H-pyrazol-4-yl)propan-2-yl)-1H-pyrazol-4-yl)-5-(trifluoromethyl) pyrimidine-2,4-diamine] | 0.3 | – | – |
| CNc1nc(Nc2cnn(C(C)(C)c3cnn(C)c3)c2C)ncc1C(F)(F)F [Example 341, N4-methyl-N2-(5-methyl-1-(2-(1-methyl-1H-pyrazol-4-yl)propan-2-yl)-1H-pyrazol-4-yl)-5-(trifluoromethyl) pyrimidine-2,4-diamine] | 6.1 | – | – |
| CCNc1nc(Nc2cn(C(C)(C)c3ccn(C)n3)nc2C)ncc1C(F)(F)F [Example 342, N4-ethyl-N2-(3-methyl-1-(2-(1-methyl-1H-pyrazol-3-yl)propan-2-yl)-1H-pyrazol-4-yl)-5-(trifluoromethyl) pyrimidine-2,4-diamine] | 21.7 | – | – |
| CCNc1nc(Nc2cn(C(C)(C)c3ccnn3C)nc2C)ncc1C(F)(F)F [Example 343, N4-ethyl-N2-(3-methyl-1-(2-(1-methyl-1H-pyrazol-5-yl)propan-2-yl)-1H-pyrazol-4-yl)-5-(trifluoromethyl) pyrimidine-2,4-diamine] | 0.3 | – | – |
| CNc1nc(Nc2cn(C(C)(C)c3ccnn3C)nc2C)ncc1C(F)(F)F [Example 344, N4-methyl-N2-(3-methyl-1-(2-(1-methyl-1H-pyrazol-5-yl)propan-2-yl)-1H-pyrazol-4-yl)-5-(trifluoromethyl) pyrimidine-2,4-diamine] | 1.4 | – | – |
| CNc1nc(Nc2cn(C(C)(C)c3ccn(C)n3)nc2C)ncc1C(F)(F)F [Example 345, N4-methyl-N2-(3-methyl-1-(2-(1-methyl-1H-pyrazol-3-yl)propan-2-yl)-1H-pyrazol-4-yl)-5-(trifluoromethyl) pyrimidine-2,4-diamine] | 115 | – | – |
| CNc1nc(Nc2cnn(C)c2C)ncc1C#N [Example 349, 2-(1,5-Dimethyl-1H-pyrazol-4-ylamino)-4-(methylamino)pyrimidine-5-carbonitrile] | – | – | Ki (read-out: LRRK2 Ki given in the example): 25 nM |
| CNc1nc(Nc2cn(C)nc2C)ncc1C#N [Example 350, 2-(1,3-Dimethyl-1H-pyrazol-4-ylamino)-4-methylamino-pyrimidine-5-carbonitrile] | – | 29 | – |
| CCn1ncc(Nc2ncc(C#N)c(NC)n2)c1C [Example 351, 2-(1-ethyl-5-methyl-1H-pyrazol-4-ylamino)-4-(methylamino) pyrimidine-5-carbonitrile] | – | 9.7 | – |
| CNc1nc(Nc2cn(C(C)C)nc2C)ncc1C#N [Example 352, 2-(1-isopropyl-3-methyl-1H-pyrazol-4-ylamino)-4-(methylamino) pyrimidine-5-carbonitrile] | – | 48 | – |
| CCn1cc(Nc2ncc(C#N)c(NC)n2)c(C)n1 [Example 353, 2-(1-ethyl-3-methyl-1H-pyrazol-4-ylamino)-4-(methylamino) pyrimidine-5-carbonitrile] | – | 36 | – |
| CNc1nc(Nc2cn(-c3ccccc3)nc2C)ncc1C#N [Example 354, 2-(3-methyl-1-phenyl-1H-pyrazol-4-ylamino)-4-(methylamino) pyrimidine-5-carbonitrile] | – | 120 | – |
| CNc1nc(Nc2cn(C3CCN(CC(F)(F)F)CC3)nc2C)ncc1C#N [Example 355, 2-(3-methyl-1-(1-(2,2,2-trifluoroethyl)piperidin-4-yl)-1H-pyrazol-4-ylamino)-4-(methylamino) pyrimidine-5-carbonitrile] | – | 299 | – |
| CNc1nc(Nc2cnn(C3CCN(CC(F)(F)F)CC3)c2C)ncc1C#N [Example 356, 2-(5-methyl-1-(1-(2,2,2-trifluoroethyl)piperidin-4-yl)-1H-pyrazol-4-ylamino)-4-(methylamino) pyrimidine-5-carbonitrile] | – | 22.5 | – |
| CNc1nc(Nc2cnn(CC(F)(F)F)c2C)ncc1C#N [Example 358, 2-(5-methyl-1-(2,2,2-trifluoroethyl)-1H-pyrazol-4-ylamino)-4-(methylamino) pyrimidine-5-carbonitrile] | – | 32 | – |
| CNc1nc(Nc2cn(CC(F)(F)F)nc2C)ncc1C#N [Example 359, 2-(3-methyl-1-(2,2,2-trifluoroethyl)-1H-pyrazol-4-ylamino)-4-(methylamino) pyrimidine-5-carbonitrile] | – | 53 | – |
| CNc1nc(Nc2cnn(-c3ccccc3)c2C)ncc1C#N [Example 360, 2-(5-methyl-1-phenyl-1H-pyrazol-4-ylamino)-4-(methylamino) pyrimidine-5-carbonitrile] | – | 1.3 | – |
| CNc1nc(Nc2cnn(C3CCOCC3)c2C)ncc1C#N [Example 361, 2-(5-methyl-1-(tetrahydro-2H-pyran-4-yl)-1H-pyrazol-4-ylamino)-4-(methylamino) pyrimidine-5-carbonitrile] | – | 8.7 | – |
